Measured values as given in US4954483A, “Carboxylic acid ester derivatives or deglucoteicoplanin” (Gruppo Lepetit, S.p.A., priority 1984, dated 1990).

Assays:
[1] = Solubility characteristics
[2] = Potentiometric titration in methylcellosolve/water 4:1 (pKa, pH1/2); format: physicochemical; conditions: methylcellosolve/water 4:1 (v/v), excess 0.01 M HCl, titrated with 0.01 M NaOH
Method: ^(c) the samples are dissolved in methylcellosolve ®/water 4:1
(v/v), an excess of 0.01 M hydrogen chloride in the same mixture is added
thereto and the resulting solution is titrated with 0.01 M NaOH in the […]

E. coli SKF 12140 = experiment: MIC, standard agar-dilution test; format: cell-based; conditions: inoculum about 10^4 CFU/ml
Method: (§1) Isosensitest broth (Oxoid) and Todd-Hewitt broth (Difco) are used for growing staphylococci and streptococci, respectively. Broth cultures are diluted so that the final inoculum is about 10^4 colony forming units/ml (CFU/ml).

S. aureus ATCC 6538 = experiment: MIC, standard agar-dilution test; format: cell-based; conditions: inoculum about 10^4 CFU/ml, 18-24 h at 37° C.
Method: as §1

[3] = tested on: S. epidermidis ATCC 12228; experiment: MIC, standard agar-dilution test; format: cell-based; conditions: inoculum about 10^4 CFU/ml
Method: as §1

S. faecalis ATCC 7080 = experiment: MIC, standard agar-dilution test; format: cell-based; conditions: inoculum about 10^4 CFU/ml
Method: as §1

S. pneumoniae UC 41 = experiment: MIC, standard agar-dilution test; format: cell-based; conditions: inoculum about 10^4 CFU/ml
Method: as §1

[4] = tested on: S. pyogenes C 203 SKF 13400; experiment: MIC, standard agar-dilution test; format: cell-based; conditions: Todd-Hewitt broth, inoculum about 10^4 CFU/ml
Method: as §1

S. aureus TOUR = experiment: MIC, standard agar-dilution test; format: cell-based
Description: Isosensitest broth (Oxoid) and Todd-Hewitt broth (Difco) are used for growing staphylococci and streptococci, respectively. […]

[5] = S. aureus TOUR + 30% bovine serum

Compound	pKa [2]	MIC (E. coli SKF 12140) [mg/L]	MIC (S. aureus ATCC 6538) [mg/L]	MIC [3] [mg/L]	MIC (S. faecalis ATCC 7080) [mg/L]	MIC (S. pneumoniae UC 41) [mg/L]	MIC [4] [mg/L]	MIC (S. aureus TOUR; S. aureus TOUR (10^3 CFU/ml)) [mg/L]	MIC (S. aureus TOUR; S. aureus TOUR (10^6 CFU/ml)) [mg/L]	MIC (S. aureus TOUR; [5]) [mg/L]	also measured
CC(=O)N[C@@H]1[C@@H](O[C@H]2c3ccc(c(Cl)c3)Oc3cc4cc(c3O)Oc3ccc(cc3Cl)C[C@@H]3NC(=O)[C@@H](N)c5ccc(O)c(c5)Oc5cc(O)cc(c5)[C@@H](NC3=O)C(=O)N[C@@H]4C(=O)N[C@@H]3C(=O)N[C@H]2C(=O)N[C@@H](C(=O)O)c2cc(O)cc(O)c2-c2cc3ccc2O)O[C@@H](CO)[C@H](O)[C@H]1O (stereo in doubt) [Antibiotic L 17046]	–	–	–	–	–	–	–	–	–	–	solubility in dimethylformamide, dimethylsulfoxide, propyleneglycol and methylcellosolve [1]: freely soluble; solubility in methanol [1]: slightly soluble; solubility in water ([1]; water at pH>8.0): freely soluble
N[C@H]1C(=O)N[C@@H]2Cc3ccc(c(Cl)c3)Oc3cc4cc(c3O)Oc3ccc(cc3Cl)[C@@H](O)[C@@H]3NC(=O)[C@H](NC(=O)[C@@H]4NC(=O)[C@@H](NC2=O)c2cc(O)cc(c2)Oc2cc1ccc2O)c1ccc(O)c(c1)-c1c(O)cc(O)cc1[C@@H](C(=O)O)NC3=O [Antibiotic L 17392, deglucoteicoplanin]	–	–	–	–	–	–	–	–	–	–	solubility in aqueous methanol, ethanol and acetone [1]: soluble; solubility in ethyl alcohol and dimethylformamide [1]: slightly soluble; solubility in water ([1]; water at a pH higher than 9): soluble
N-benzyloxycarbonyl deglucoteicoplanin [Example 4]	5.02	–	–	–	–	–	–	–	–	–	–
deglucoteicoplanin 4-chloro-butyl ester [Example 9]	6.60	–	–	–	–	–	–	–	–	–	–
deglucoteicoplanin benzyl ester, hydrochloride [Example 3]	6.67	12.5	0.4	0.1	0.4	0.2	0.05	0.4	0.4	0.8	–
deglucoteicoplanin n-butyl ester, hydrochloride [Example 1]	6.57	50	0.05	0.05	0.2	0.1	0.1	0.1	0.4	0.4	–
deglucoteicoplanin n-octyl ester, hydrochloride [Example 2]	6.82	> 100	0.2	0.1	0.4	0.05	0.05	0.2	0.8	0.8	–
